Source: US20030143586A1, “Genetic hypermutability of plants for gene discovery and diagnosis” (priority 2001, published 2003)

Columns and labels:
[1] = system: horseweed (Conyza canadensis); test: Glyphosate applied to horseweed plants to confirm sensitivity to the herbicide; type: in vivo
Description: Isolation and modification of the genomic DNA: Total horseweed (Conyza Canadensis) genomic DNA was isolated from 100 mg of leaves using Plant DNAZol as described by the manufacturer (Invitrogen). The typical yield was 10-20 μg DNA per preparation. Two different biotypes of horseweed were used as source of the DNA and were designated HR and HS.
Analysis of the DNA Marker: Horseweeds were either germinated from seeds or seedlings were transferred from the field into the greenhouse. DNAs from the genomes of HR and HS horseweeds were isolated. At the same time, glyphosate was applied at 2 lb active ingredient/acre rate to confirm the plants' sensitivity to the herbicide.

[2] = system: Conyza canadensis field populations; conditions: cited from earlier work

O=C(O)CNCP(=O)(O)O [Glyphosate, glyphosate]
response to glyphosate treatment ([1]; horseweed biotype designated HR (DNA source, Example 4)): tolerance | response to glyphosate treatment ([1]; horseweed biotype designated HS (DNA source, Example 4)): sensitive | field populations naturally resistant to glyphosate [2]: approximately 15%
